Experimental data from ChEMBL document CHEMBL1201862, “PubChem BioAssay data set” (2004).
Values joined by “and” are separate entries in the source; they are usually repeats but may differ in a detail not shown here. Identical values can stand only once.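 In this assay, cells in 96-well plates receive the compound at five concentrations for 48 hours. Endpoints are linearly interpolated between the surrounding concentrations. Here, GI50 denotes the concentration required for 50% inhibition of growth.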 Active and inactive are the calls of the source. Cut-off read from the data, not from the text of the source: active = GI50 up to about 1.1 µM and inactive = higher.

What was measured:
Test in all cases: NCI-60 cell line screen, 48 h
786-0 = test system: 786-0
ACHN = test system: ACHN
HL-60 = test system: HL-60
HOP-62 = test system: HOP-62
HOP-92 = test system: HOP-92
IGROV-1 = test system: IGROV-1
K562 = test system: K562
M14 = test system: M14
MCF7 = test system: MCF7
MOLT-4 = test system: MOLT-4
Malme-3M = test system: Malme-3M
NCI-H460 = test system: NCI-H460
NCI-H522 = test system: NCI-H522
RXF 393 = test system: RXF 393
SF-539 = test system: SF-539
SNB-75 = test system: SNB-75
UACC-62 = test system: UACC-62
UO-31 = test system: UO-31
SR = test system: SR

Row | SMILES | GI50 (786-0) | GI50 (ACHN) | GI50 (HL-60) | GI50 (HOP-62) | GI50 (HOP-92) | GI50 (IGROV-1) | GI50 (K562) | GI50 (M14) | GI50 (MCF7) | GI50 (MOLT-4) | GI50 (Malme-3M) | GI50 (NCI-H460) | GI50 (NCI-H522) | GI50 (RXF 393) | GI50 (SF-539) | GI50 (SNB-75) | GI50 (UACC-62) | GI50 (UO-31) | GI50 (SR)
1 | Oc1ccc(NCc2cc(O)ccc2O)cc1 | 15 µM (inactive) | 16.1 µM (inactive) | 3.03 µM (inactive) | 18.7 µM (inactive) | 13.1 µM (inactive) | 16.4 µM (inactive) | 19.2 µM (inactive) | 17.8 µM (inactive) | 13.9 µM (inactive) | 3.07 µM (inactive) | 19.1 µM (inactive) | 18.5 µM (inactive) | 2.06 µM (inactive) | 15.3 µM (inactive) | 23.2 µM (inactive) | 17.2 µM (inactive) | 15.4 µM (inactive) | 14.1 µM (inactive) | 
2 | C[C@]12CC[C@H]3[C@@H](CC=C4C[C@@H](O)CC[C@@]43C)[C@@H]1CC[C@@H]2N(CCO)CCO | 19.7 µM (inactive) | 30.7 µM (inactive) |  | 51.3 µM (inactive) | 64 µM (inactive) | 50.7 µM (inactive) | 71.9 µM (inactive) | 48.4 µM (inactive) | 33.2 µM (inactive) | > 100 µM (inactive) | 31 µM (inactive) | 33.2 µM (inactive) | 20.4 µM (inactive) | 36.1 µM (inactive) | 54.7 µM (inactive) | 72.8 µM (inactive) | 35.3 µM (inactive) | 51.8 µM (inactive) | 
3 | C=CCCCCOC1C=CC(OC(C)=O)C(COC(C)=O)O1 (stereo not given) | > 100 µM (inactive) | > 100 µM (inactive) | > 100 µM (inactive) | > 100 µM (inactive) | > 100 µM (inactive) | > 100 µM (inactive) | > 10 µM (inactive) | > 100 µM (inactive) | > 100 µM (inactive) | > 100 µM (inactive) | > 100 µM (inactive) | > 100 µM (inactive) | > 100 µM (inactive) | > 100 µM (inactive) | > 100 µM (inactive) |  | > 100 µM (inactive) | > 100 µM (inactive) | 
4 | C(=N\NC1=NCCCN1)/c1ccc(-c2cn3cc(/C=N/NC4=NCCCN4)ccc3n2)cc1 | 18.9 µM (inactive) | 42 µM (inactive) | 20.7 µM (inactive) | > 79.8 µM (inactive) | 59 µM (inactive) | 50.6 µM (inactive) | 38.4 µM (inactive) | > 81.1 µM (inactive) | 32 µM (inactive) | 5.73 µM (inactive) | 19 µM (inactive) | 7.23 µM (inactive) | > 100 µM (inactive) | 61.1 µM (inactive) | > 61.7 µM (inactive) | > 81.5 µM (inactive) | > 100 µM (inactive) | > 100 µM (inactive) | 
5 | C=C(C)[C@H]1CC(=O)/C(C)=C\CC/C(C)=C/CC[C@@]2(C)O[C@@H]2C1 | 47.5 µM (inactive) | 29.4 µM (inactive) | 27.5 µM (inactive) | 40.2 µM (inactive) | 48.5 µM (inactive) | 29 µM (inactive) | 28.4 µM (inactive) | 32.5 µM (inactive) |  | 31.8 µM (inactive) | 36.8 µM (inactive) | 16.8 µM (inactive) |  |  | 20 µM (inactive) | 41.4 µM (inactive) | 8.47 µM (inactive) | 20.7 µM (inactive) | 25.4 µM (inactive)
6 | C=CCOC(=O)CCCCCCCCCCCCCCCOC(=O)c1c(CCC[C@@H](C)O[Si](C)(C)C(C)(C)C)nc([O-])[n+]2c1CC[C@H]2CC1(CC/C=C\[C@H](CC)O[Si](C(C)C)(C(C)C)C(C)C)OCCO1 | 26.7 µM (inactive) | 35.7 µM (inactive) |  | 48.6 µM (inactive) | 18.2 µM (inactive) |  |  | > 100 µM (inactive) | 53.5 µM (inactive) |  | > 100 µM (inactive) | > 100 µM (inactive) | > 100 µM (inactive) |  | > 100 µM (inactive) | > 100 µM (inactive) | 30.4 µM (inactive) | 28.4 µM (inactive) | 
7 | Cc1cc2nc3c(C#N)c(-c4ccccc4)cc(Nc4ccc(F)cc4)n3c2cc1C | 8.49 µM (inactive) | 16.4 µM (inactive) |  | 14.4 µM (inactive) | 5.01 µM (inactive) |  |  |  |  | 17.6 µM (inactive) | 21.5 µM (inactive) |  | 4.33 µM (inactive) | 14.4 µM (inactive) | 18.6 µM (inactive) | 15.9 µM (inactive) |  |  | 
8 | CC(=O)OCC1OC(SC2=NC(=O)CS2)C(OC(C)=O)C(OC(C)=O)C1OC(C)=O (stereo not given) | > 100 µM (inactive) | > 100 µM (inactive) | 26.7 µM (inactive) and 23.4 µM (inactive) | > 100 µM (inactive) |  | > 100 µM (inactive) | 43.5 µM (inactive) and 40 µM (inactive) | > 100 µM (inactive) | 71.4 µM (inactive) | 57.7 µM (inactive) and 51.8 µM (inactive) | > 100 µM (inactive) | > 100 µM (inactive) | 47 µM (inactive) and 78.9 µM (inactive) | > 100 µM (inactive) | > 100 µM (inactive) | > 100 µM (inactive) | > 100 µM (inactive) and 76.6 µM (inactive) | > 100 µM (inactive) | 39.6 µM (inactive) and 67.5 µM (inactive)
9 | Cc1ccc(/N=N/C(=N/NC(=O)c2cc(Cl)ccc2O)c2ccc(N(CCC#N)CCC#N)cc2C)cc1 | 28.1 µM (inactive) | 24.4 µM (inactive) | 4.55 µM (inactive) | 32.8 µM (inactive) |  | 23.9 µM (inactive) | 17.1 µM (inactive) | 30.6 µM (inactive) | 24.7 µM (inactive) | 53.7 µM (inactive) | 20.6 µM (inactive) | 21.8 µM (inactive) | 8.95 µM (inactive) | 18.2 µM (inactive) | 18.5 µM (inactive) | 26.7 µM (inactive) | 22.7 µM (inactive) | 24.8 µM (inactive) | 51.2 µM (inactive)
10 | N#Cc1c2c(c(Nc3cccc(C(F)(F)F)c3)n3c1nc1ccccc13)CCC2 | > 100 µM (inactive) | > 100 µM (inactive) |  | > 100 µM (inactive) | 6.5 µM (inactive) |  |  |  |  | > 100 µM (inactive) | > 100 µM (inactive) |  | > 100 µM (inactive) | > 100 µM (inactive) | > 100 µM (inactive) | > 100 µM (inactive) |  |  | 
11 | N#C/C(=C/c1cccc(Oc2ccccc2)c1)c1ccccc1 | > 100 µM (inactive) | > 100 µM (inactive) | 64.7 µM (inactive) |  | 93.8 µM (inactive) | > 100 µM (inactive) | 36.7 µM (inactive) | > 100 µM (inactive) |  | > 100 µM (inactive) | > 100 µM (inactive) | > 100 µM (inactive) | > 100 µM (inactive) |  | > 100 µM (inactive) | > 100 µM (inactive) | > 100 µM (inactive) | > 100 µM (inactive) | > 100 µM (inactive)
12 | O=C(/C=C/c1ccc(Cl)cc1)c1nc2ccccc2[nH]1 | 13 µM (inactive) | 48.9 µM (inactive) |  | 17.6 µM (inactive) | > 100 µM (inactive) | 38.6 µM (inactive) | 5.58 µM (inactive) | 31.8 µM (inactive) | 2.22 µM (inactive) |  | > 100 µM (inactive) | 53 µM (inactive) | 28.2 µM (inactive) |  | 6.98 µM (inactive) | 11.7 µM (inactive) | 35.9 µM (inactive) | 10.9 µM (inactive) | 
13 | CC(=O)OC1[C@H](OC(C)=O)C2=C(C)[C@@H](OC(C)=O)C[C@@]2(C(C)(C)O)[C@@H](OC(C)=O)[C@H]2[C@@]1(C)[C@@H](OC(C)=O)CC(OC(C)=O)[C@]21CO1 (stereo not given in full) | > 100 µM (inactive) | > 100 µM (inactive) | > 100 µM (inactive) | > 100 µM (inactive) |  |  | > 100 µM (inactive) | > 100 µM (inactive) | > 100 µM (inactive) | > 100 µM (inactive) | > 100 µM (inactive) |  | > 100 µM (inactive) | > 100 µM (inactive) | > 100 µM (inactive) | > 100 µM (inactive) | > 100 µM (inactive) | > 100 µM (inactive) | > 100 µM (inactive)
14 | C=CCC1([C@H](C)[C@@H](OC(C)=O)c2cc(OC)c(OC)c(OC)c2)C[C@@H](OC)CCC1=O (stereo not given in full) | 11.7 µM (inactive) | 19.8 µM (inactive) | 12.8 µM (inactive) | 35.7 µM (inactive) | 23 µM (inactive) | 19.1 µM (inactive) | 16.4 µM (inactive) | 15.6 µM (inactive) |  | 18.6 µM (inactive) | 17.2 µM (inactive) | 17.7 µM (inactive) | 11.1 µM (inactive) | 12.9 µM (inactive) | 16.4 µM (inactive) | 18 µM (inactive) | 16.1 µM (inactive) |  | 22.3 µM (inactive)
15 | COc1cccc(-c2cc(O)c3cc(C)cnc3n2)c1 | 0.0488 µM (active) | 0.0625 µM (active) | 0.0246 µM (active) | 0.0682 µM (active) |  | 0.469 µM (active) | 0.0381 µM (active) | 0.0543 µM (active) | 0.543 µM (active) | 0.115 µM (active) |  | 0.0458 µM (active) | 0.0389 µM (active) | 0.0211 µM (active) | 0.0371 µM (active) | 0.0188 µM (active) | 0.0258 µM (active) | 1.26 µM (inactive) | 0.0297 µM (active)
16 | Cc1ccc2n(c1)cc(-c1ccc(/C=N/NC(=N)N/N=C/c3ccc(-c4cn5cc(C)ccc5[n+]4C)cc3)cc1)[n+]2C | 36.3 µM (inactive) | 40.2 µM (inactive) | > 100 µM (inactive) | > 100 µM (inactive) |  | > 100 µM (inactive) | > 10 µM (inactive) | 33.9 µM (inactive) | > 100 µM (inactive) | > 100 µM (inactive) |  | 80.2 µM (inactive) | > 100 µM (inactive) |  | 39.8 µM (inactive) | 20.9 µM (inactive) |  | 25.6 µM (inactive) | > 100 µM (inactive)
17 | CC(C)(C)NCC(O)COc1cccc2[nH]c(C#N)cc12 (stereo not given) [CYANOPINDOLOL] | > 100 µM (inactive) | > 100 µM (inactive) | > 100 µM (inactive) | > 100 µM (inactive) |  | > 100 µM (inactive) |  | > 100 µM (inactive) | > 100 µM (inactive) | > 100 µM (inactive) | > 100 µM (inactive) |  | 27.2 µM (inactive) |  | > 100 µM (inactive) |  | > 100 µM (inactive) | > 100 µM (inactive) | > 100 µM (inactive)
